Measurements as given in article PMC10140010 (Investigational New Drugs, 2023).
“And” between values parts separate entries of the source, which are not always exact repeats. Identical values can stand only once.

Legend:
PKA = PKA (Homo sapiens, UniProt P17612); test: Z'-LYTE kinase selectivity; assay type: biochemical
CDK2 = CDK2 (Homo sapiens, UniProt P24941); test: Z'-LYTE kinase selectivity; assay type: biochemical
CK1 alpha = CK1 alpha (Homo sapiens, UniProt P48729); test: Z'-LYTE kinase selectivity; assay type: biochemical
[1] = tested on: LU-01-0015 (HIP-ALK) patient derived lung-tumor xenografts; test: LU-01-0015 patient-derived xenograft model (tumor volume, body weight); assay type: in vivo, BALB/c nude mice; details: for Tumor volume Mean: group mean; for Tumor volume: individual mouse, in mm³
Method: (§1) Female BALB/c nude mice (4–6 weeks old) were provided by Shanghai Sipple-Bikai Laboratory Animal Co., Ltd. and Beijing Vital River Laboratory Animal Technology Co., Ltd. The mice were housed in a specific pathogen-free environment under a 12 h light/dark cycle, and had free access to sterile animal feed and water.
(§2) PDX and CDX models were used for in vivo studies. Patient-derived tumors tissues were divided into about 30 mm^3 and transplanted into the right dorsal subcutis. Treatment began when the tumor size reached to 200 mm^3. The mice were randomly assignied into the corresponding dosing groups (9 mice in each group). Drugs were deliverd via daily oral for 4 weeks. Tumor size was measured periodically using a digital caliper (Cal Pro, Sylvac, Switzerland), and tumor volume was calculated as 0.5 × length × width^2. For more detailed information, please refer to Supplementary materials. All procedures and protocols of xenograft models were approved by the Institutional Animal Care and Use Committee of WuXi AppTec.
Patient-derived tumor tissue was segmented into small pieces of approximately 20–30 mm^3 and transplanted subcutaneously into the right back of mice. When the tumor volume reached 150-200 mm^3, the mice were randomly divided into corresponding groups (9 mice in each group, female). Administered by gavage once daily for 4 weeks.

ABL = ABL (Homo sapiens, UniProt P00519); test: Z'-LYTE kinase selectivity; assay type: biochemical
ABL, sequence (P00519 whole entry): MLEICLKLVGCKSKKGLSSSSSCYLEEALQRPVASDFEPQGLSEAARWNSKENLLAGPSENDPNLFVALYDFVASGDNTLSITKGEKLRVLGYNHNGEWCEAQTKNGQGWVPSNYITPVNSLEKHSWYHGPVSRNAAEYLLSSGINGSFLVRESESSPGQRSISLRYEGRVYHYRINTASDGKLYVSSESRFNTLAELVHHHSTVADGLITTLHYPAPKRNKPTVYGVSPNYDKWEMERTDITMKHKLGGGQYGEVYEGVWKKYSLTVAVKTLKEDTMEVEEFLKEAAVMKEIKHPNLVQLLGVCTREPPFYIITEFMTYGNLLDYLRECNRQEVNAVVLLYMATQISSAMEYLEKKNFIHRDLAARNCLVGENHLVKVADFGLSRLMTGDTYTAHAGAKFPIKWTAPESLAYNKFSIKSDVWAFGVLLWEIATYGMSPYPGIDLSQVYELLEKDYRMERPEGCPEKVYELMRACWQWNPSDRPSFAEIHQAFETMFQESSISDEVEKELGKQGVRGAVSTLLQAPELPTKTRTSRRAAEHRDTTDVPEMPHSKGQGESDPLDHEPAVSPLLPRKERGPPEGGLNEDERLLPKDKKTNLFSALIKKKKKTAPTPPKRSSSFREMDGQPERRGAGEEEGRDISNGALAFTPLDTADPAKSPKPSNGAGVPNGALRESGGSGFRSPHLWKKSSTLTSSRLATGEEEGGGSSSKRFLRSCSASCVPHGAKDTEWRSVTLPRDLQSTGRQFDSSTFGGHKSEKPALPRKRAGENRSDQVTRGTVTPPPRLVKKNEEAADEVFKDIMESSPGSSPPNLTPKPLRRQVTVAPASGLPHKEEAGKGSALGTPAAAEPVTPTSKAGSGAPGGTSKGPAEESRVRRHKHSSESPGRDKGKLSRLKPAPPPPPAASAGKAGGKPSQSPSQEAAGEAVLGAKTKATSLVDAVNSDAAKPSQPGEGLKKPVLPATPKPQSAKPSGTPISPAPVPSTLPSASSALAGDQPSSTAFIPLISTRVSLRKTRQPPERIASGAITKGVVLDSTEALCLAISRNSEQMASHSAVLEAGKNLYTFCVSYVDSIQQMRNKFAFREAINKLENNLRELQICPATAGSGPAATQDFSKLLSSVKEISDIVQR

TAOK2 = TAOK2 (Homo sapiens, UniProt Q9UL54); test: Z'-LYTE kinase selectivity; assay type: biochemical
EPHA2 = EPHA2 (Homo sapiens, UniProt P29317); test: Z'-LYTE kinase selectivity; assay type: biochemical
MAP4K4 = MAP4K4 (Homo sapiens, UniProt O95819); test: Z'-LYTE kinase selectivity; assay type: biochemical
PDK1 = PDK1 (Homo sapiens, UniProt O15530); test: Z'-LYTE kinase selectivity; assay type: biochemical; details: read-out: IC50 PDK1
LCK = LCK (Homo sapiens, UniProt P06239); test: Z'-LYTE kinase selectivity; assay type: biochemical
CaMK2 alpha = CaMK2 alpha (Homo sapiens, UniProt Q9UQM7); test: Z'-LYTE kinase selectivity; assay type: biochemical
JNK1 = JNK1 (Homo sapiens, UniProt P45983); test: Z'-LYTE kinase selectivity; assay type: biochemical
JAK2 = JAK2 (Homo sapiens, UniProt O60674); test: Z'-LYTE kinase selectivity; assay type: biochemical
GSK3 beta = GSK3 beta (Homo sapiens, UniProt P49841); test: Z'-LYTE kinase selectivity; assay type: biochemical
GSK3 beta, sequence (P49841 whole entry): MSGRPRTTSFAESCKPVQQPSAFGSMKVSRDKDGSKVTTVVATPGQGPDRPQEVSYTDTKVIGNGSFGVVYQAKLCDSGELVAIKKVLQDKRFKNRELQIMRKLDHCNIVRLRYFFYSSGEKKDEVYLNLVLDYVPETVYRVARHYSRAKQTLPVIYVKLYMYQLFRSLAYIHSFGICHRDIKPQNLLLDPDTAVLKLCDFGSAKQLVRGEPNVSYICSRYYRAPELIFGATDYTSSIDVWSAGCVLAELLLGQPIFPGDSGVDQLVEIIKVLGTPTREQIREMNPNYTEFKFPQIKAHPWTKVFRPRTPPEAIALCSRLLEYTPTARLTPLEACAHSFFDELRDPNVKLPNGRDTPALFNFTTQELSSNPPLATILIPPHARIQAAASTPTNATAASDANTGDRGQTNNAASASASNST

TNIK = TNIK (Homo sapiens, UniProt Q9UKE5); test: Z'-LYTE kinase selectivity; assay type: biochemical
TNIK, sequence (Q9UKE5 whole entry): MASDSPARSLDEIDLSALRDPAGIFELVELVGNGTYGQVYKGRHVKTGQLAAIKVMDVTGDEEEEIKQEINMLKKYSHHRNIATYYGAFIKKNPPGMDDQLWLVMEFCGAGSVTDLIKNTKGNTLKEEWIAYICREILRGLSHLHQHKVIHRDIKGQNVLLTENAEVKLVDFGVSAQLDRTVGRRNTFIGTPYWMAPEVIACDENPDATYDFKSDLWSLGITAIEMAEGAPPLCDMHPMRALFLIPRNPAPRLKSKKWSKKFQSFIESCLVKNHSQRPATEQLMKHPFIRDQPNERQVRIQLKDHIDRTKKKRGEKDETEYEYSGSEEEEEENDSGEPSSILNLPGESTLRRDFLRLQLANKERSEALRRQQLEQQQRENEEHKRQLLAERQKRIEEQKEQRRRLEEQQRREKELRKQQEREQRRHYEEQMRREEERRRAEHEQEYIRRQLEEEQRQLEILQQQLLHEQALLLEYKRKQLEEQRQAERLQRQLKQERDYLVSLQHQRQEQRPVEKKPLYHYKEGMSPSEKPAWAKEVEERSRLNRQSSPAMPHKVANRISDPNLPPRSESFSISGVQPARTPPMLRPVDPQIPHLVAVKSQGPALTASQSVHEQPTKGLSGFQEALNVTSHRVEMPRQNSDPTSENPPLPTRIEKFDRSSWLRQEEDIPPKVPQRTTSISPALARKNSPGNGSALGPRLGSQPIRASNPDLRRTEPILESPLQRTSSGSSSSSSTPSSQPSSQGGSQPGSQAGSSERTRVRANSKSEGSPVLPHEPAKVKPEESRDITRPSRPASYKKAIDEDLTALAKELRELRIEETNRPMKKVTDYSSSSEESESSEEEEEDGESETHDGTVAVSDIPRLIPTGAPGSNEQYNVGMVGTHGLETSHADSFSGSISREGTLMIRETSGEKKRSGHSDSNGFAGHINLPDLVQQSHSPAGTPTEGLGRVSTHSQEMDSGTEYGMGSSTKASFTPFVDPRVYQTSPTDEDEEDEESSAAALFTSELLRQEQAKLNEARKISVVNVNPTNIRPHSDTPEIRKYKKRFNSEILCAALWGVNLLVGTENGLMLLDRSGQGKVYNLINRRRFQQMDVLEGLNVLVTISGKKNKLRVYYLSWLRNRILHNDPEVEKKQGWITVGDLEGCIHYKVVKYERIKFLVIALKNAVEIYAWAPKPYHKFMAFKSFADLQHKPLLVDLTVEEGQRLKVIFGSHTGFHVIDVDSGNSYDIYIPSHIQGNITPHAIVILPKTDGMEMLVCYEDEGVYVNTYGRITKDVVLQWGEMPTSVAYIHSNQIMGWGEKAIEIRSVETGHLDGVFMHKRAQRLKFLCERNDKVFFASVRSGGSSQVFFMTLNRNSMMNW

INSR = INSR (Homo sapiens, UniProt P06213); test: Z'-LYTE kinase selectivity; assay type: biochemical
INSR, sequence (P06213 28-1382): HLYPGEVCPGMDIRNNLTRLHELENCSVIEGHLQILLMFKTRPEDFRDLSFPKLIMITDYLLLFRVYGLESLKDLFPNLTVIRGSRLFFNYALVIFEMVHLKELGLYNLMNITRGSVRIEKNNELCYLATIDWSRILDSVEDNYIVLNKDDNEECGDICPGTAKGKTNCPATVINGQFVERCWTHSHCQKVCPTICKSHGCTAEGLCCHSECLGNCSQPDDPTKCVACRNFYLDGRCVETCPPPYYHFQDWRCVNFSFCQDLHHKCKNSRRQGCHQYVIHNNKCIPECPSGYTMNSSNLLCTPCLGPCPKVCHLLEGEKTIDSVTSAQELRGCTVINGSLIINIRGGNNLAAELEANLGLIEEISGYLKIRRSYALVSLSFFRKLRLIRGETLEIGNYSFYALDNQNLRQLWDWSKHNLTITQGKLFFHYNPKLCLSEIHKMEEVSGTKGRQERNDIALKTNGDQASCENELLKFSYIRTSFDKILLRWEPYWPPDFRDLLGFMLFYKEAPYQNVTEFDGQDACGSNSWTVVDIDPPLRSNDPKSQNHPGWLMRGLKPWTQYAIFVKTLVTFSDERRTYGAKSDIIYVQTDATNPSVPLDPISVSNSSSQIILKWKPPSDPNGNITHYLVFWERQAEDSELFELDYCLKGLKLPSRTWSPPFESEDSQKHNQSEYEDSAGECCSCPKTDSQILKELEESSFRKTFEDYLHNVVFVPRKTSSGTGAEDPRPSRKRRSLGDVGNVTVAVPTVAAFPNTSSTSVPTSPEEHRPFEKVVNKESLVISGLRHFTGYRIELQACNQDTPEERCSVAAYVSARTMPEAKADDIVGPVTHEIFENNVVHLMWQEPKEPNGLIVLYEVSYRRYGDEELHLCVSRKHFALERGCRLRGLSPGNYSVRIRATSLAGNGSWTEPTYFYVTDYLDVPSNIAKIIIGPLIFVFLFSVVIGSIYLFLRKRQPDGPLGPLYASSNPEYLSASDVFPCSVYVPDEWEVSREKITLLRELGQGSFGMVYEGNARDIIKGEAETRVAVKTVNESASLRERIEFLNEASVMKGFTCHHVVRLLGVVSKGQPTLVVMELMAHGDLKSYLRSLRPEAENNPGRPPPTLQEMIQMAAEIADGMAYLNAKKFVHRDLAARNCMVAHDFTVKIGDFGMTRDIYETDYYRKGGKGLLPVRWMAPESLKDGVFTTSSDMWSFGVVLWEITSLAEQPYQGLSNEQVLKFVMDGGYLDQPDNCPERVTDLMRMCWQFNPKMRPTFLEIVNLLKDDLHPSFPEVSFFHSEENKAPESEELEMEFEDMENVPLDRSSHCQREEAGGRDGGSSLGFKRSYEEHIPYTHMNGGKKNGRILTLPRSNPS

[2] = tested on: NCI-H3122 (EML4-ALK) xenograft; test: NCI-H3122 cell line-derived xenograft model (tumor volume, body weight); assay type: in vivo, BALB/c nude mice; details: for Tumor volume, individual animals: in mm³
Method: as §1, §2
NCI-H3122 cells were re-suspended with 0.9% sodium chloride, and then 6×10^6 cells in 100 μL was inoculated subcutaneously into the right armpit of nude mice to prepare solid tumor models under sterile conditions. […] Groups were gavaged once daily with the base dose of drug for 21 days. The blank control group was given the same volume of vehicle (sterile water) injection according to the same protocol, with the dose volume of 100 μL/10 g.

DYRK3 = DYRK3 (Homo sapiens, UniProt O43781); test: Z'-LYTE kinase selectivity; assay type: biochemical
DYRK3, sequence (O43781 whole entry): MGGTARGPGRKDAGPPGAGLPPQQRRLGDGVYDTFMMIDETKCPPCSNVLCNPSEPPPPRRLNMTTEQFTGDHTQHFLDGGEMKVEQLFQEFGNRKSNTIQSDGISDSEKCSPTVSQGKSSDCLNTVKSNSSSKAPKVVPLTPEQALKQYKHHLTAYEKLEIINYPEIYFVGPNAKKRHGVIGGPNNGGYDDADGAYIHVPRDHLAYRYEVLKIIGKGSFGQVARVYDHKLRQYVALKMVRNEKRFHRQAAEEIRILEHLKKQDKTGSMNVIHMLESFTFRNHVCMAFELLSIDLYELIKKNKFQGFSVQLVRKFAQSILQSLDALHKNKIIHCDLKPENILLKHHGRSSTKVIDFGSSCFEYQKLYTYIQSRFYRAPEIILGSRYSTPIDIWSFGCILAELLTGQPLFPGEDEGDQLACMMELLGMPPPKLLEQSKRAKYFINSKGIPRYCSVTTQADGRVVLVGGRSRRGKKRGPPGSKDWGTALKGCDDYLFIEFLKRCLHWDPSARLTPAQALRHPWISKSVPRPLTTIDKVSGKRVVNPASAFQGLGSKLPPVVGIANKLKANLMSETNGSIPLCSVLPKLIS

[3] = 5 mg/kg PO QD×4 W, day 0 after administration
[4] = 5 mg/kg PO QD×4 W, day 3 after administration
[5] = 5 mg/kg PO QD×4 W, day 7 after administration
[6] = 5 mg/kg PO QD×4 W, day 10 after administration
[7] = 5 mg/kg PO QD×4 W, day 14 after administration
[8] = 5 mg/kg PO QD×4 W, day 17 after administration
[9] = 5 mg/kg PO QD×4 W, day 21 after administration
[10] = 5 mg/kg PO QD×4 W, day 24 after administration
[11] = 5 mg/kg PO QD×4 W, day 27 after administration
[12] = 10 mg/kg (D0-D7)/2.5 mg/kg PO QD×4 W, day 0 after administration
[13] = 10 mg/kg (D0-D7)/2.5 mg/kg PO QD×4 W, day 3 after administration
[14] = 10 mg/kg (D0-D7)/2.5 mg/kg PO QD×4 W, day 7 after administration
[15] = 10 mg/kg (D0-D7)/2.5 mg/kg PO QD×4 W, day 10 after administration
[16] = 10 mg/kg (D0-D7)/2.5 mg/kg PO QD×4 W, day 14 after administration
[17] = 10 mg/kg (D0-D7)/2.5 mg/kg PO QD×4 W, day 17 after administration
[18] = 10 mg/kg (D0-D7)/2.5 mg/kg PO QD×4 W, day 21 after administration
[19] = 10 mg/kg (D0-D7)/2.5 mg/kg PO QD×4 W, day 24 after administration
[20] = 10 mg/kg (D0-D7)/2.5 mg/kg PO QD×4 W, day 27 after administration
[21] = 15 mg/kg PO QD×4 W, day 0 after administration
[22] = 15 mg/kg PO QD×4 W, day 3 after administration
[23] = 15 mg/kg PO QD×4 W, day 7 after administration
[24] = 15 mg/kg PO QD×4 W, day 10 after administration
[25] = 15 mg/kg PO QD×4 W, day 14 after administration
[26] = 15 mg/kg PO QD×4 W, day 17 after administration
[27] = 15 mg/kg PO QD×4 W, day 21 after administration
[28] = 15 mg/kg PO QD×4 W, day 24 after administration
[29] = 15 mg/kg PO QD×4 W, day 27 after administration
[30] = 2.5mg/kg PO QD×21, day 0 after administration
[31] = 2.5mg/kg PO QD×21, day 3 after administration
[32] = 2.5mg/kg PO QD×21, day 6 after administration
[33] = 2.5mg/kg PO QD×21, day 9 after administration
[34] = 2.5mg/kg PO QD×21, day 13 after administration
[35] = 2.5mg/kg PO QD×21, day 16 after administration
[36] = 2.5mg/kg PO QD×21, day 20 after administration
[37] = 5mg/kg PO QD×21, day 0 after administration
[38] = 5mg/kg PO QD×21, day 3 after administration
[39] = 5mg/kg PO QD×21, day 6 after administration
[40] = 5mg/kg PO QD×21, day 9 after administration
[41] = 5mg/kg PO QD×21, day 13 after administration
[42] = 5mg/kg PO QD×21, day 16 after administration
[43] = 5mg/kg PO QD×21, day 20 after administration

COc1cc(N2CCC3(CCN(C)CC3)CC2)ccc1Nc1ncc(Cl)c(Nc2ccccc2P(C)(C)=O)n1 [Iruplinalkib]
IC50 (PKA): > 10 µM
IC50 (CDK2): 1.56 ± 1.13 µM
IC50 (CK1 alpha): > 10 µM
Tumor volume Mean [1, 3]: 149 mm³
Tumor volume [1, 3]: 165
Tumor volume Mean [1, 4]: 127 mm³
Tumor volume [1, 4]: 165
Tumor volume Mean [1, 5]: 82 mm³
Tumor volume [1, 5]: 96
Tumor volume Mean [1, 6]: 79 mm³
Tumor volume [1, 6]: 80
Tumor volume Mean [1, 7]: 70 mm³
Tumor volume [1, 7]: 75
Tumor volume Mean [1, 8]: 81 mm³
Tumor volume [1, 8]: 96
Tumor volume Mean [1, 9]: 89 mm³
Tumor volume [1, 9]: 121
Tumor volume Mean [1, 10]: 85 mm³
Tumor volume [1, 10]: 118
Tumor volume Mean [1, 11]: 94 mm³
Tumor volume [1, 11]: 104
Tumor volume Mean [1, 12]: 150 mm³
Tumor volume [1, 12]: 136 and 117
Tumor volume Mean [1, 13]: 124 mm³
Tumor volume [1, 13]: 115 and 76
Tumor volume Mean [1, 14]: 77 mm³
Tumor volume [1, 14]: 71 and 51
Tumor volume Mean [1, 15]: 60 mm³
Tumor volume [1, 15]: 49 and 43
Tumor volume Mean [1, 16]: 63 mm³
Tumor volume [1, 16]: 48
Tumor volume Mean [1, 17]: 77 mm³
Tumor volume [1, 17]: 58
Tumor volume Mean [1, 18]: 107 mm³
Tumor volume [1, 18]: 56
Tumor volume Mean [1, 19]: 106 mm³
Tumor volume [1, 19]: 57
Tumor volume Mean [1, 20]: 127 mm³
Tumor volume [1, 20]: 65 and 99
Tumor volume Mean [1, 21]: 149 mm³
Tumor volume [1, 21]: 101 and 162 and 129 and 99 and 217 and 147 and 109 and 207 and 174
Tumor volume Mean [1, 22]: 115 mm³
Tumor volume [1, 22]: 81 and 117 and 84 and 63 and 150 and 118 and 79 and 154 and 190
Tumor volume Mean [1, 23]: 66 mm³
Tumor volume [1, 23]: 51 and 61 and 57 and 56 and 78 and 72 and 52 and 71 and 98
Tumor volume Mean [1, 24]: 54 mm³
Tumor volume [1, 24]: 48 and 61 and 44 and 35 and 63 and 79 and 45
Tumor volume Mean [1, 25]: 49 mm³
Tumor volume [1, 25]: 41 and 57 and 43 and 31 and 72 and 46 and 44 and 60
Tumor volume Mean [1, 26]: 51 mm³
Tumor volume [1, 26]: 44 and 92 and 41 and 24 and 68 and 47 and 32 and 42
Tumor volume Mean [1, 27]: 49 mm³
Tumor volume [1, 27]: 35 and 87 and 45 and 30 and 53 and 59 and 37 and 41 and 57
Tumor volume Mean [1, 28]: 43 mm³
Tumor volume [1, 28]: 29 and 56 and 37 and 23 and 45 and 53 and 34 and 22 and 91
Tumor volume Mean [1, 29]: 49 mm³
Tumor volume [1, 29]: 30 and 67 and 38 and 27 and 62 and 54 and 44 and 42 and 78
tumor growth inhibition ([1]; LU-01-0015 and NCI-H3122 xenograft models, all P < 0.05): able to inhibit tumor growth
tumor inhibition effect compared with brigatinib ([1]; crizotinib-resistant model): significantly better than that of brigatinib
effect on body weight ([1]; nude mouse xenograft models (LU-01-0015, NCI-H3122), all P ≥ 0.05): no effect
IC50 (ABL): 0.576 ± 0.108 µM
IC50 (TAOK2): 1.5 ± 0.442 µM
IC50 (EPHA2): > 10 µM
IC50 (MAP4K4): 1.84 ± 0.679 µM
IC50 (PDK1): > 10 µM
IC50 (LCK): 0.825 ± 0.243 µM
IC50 (CaMK2 alpha): 0.939 ± 0.099 µM
IC50 (JNK1): 2.04 ± 1.17 µM
IC50 (JAK2): 0.595 ± 0.012 µM
IC50 (GSK3 beta): > 10 µM
IC50 (TNIK): 3.21 ± 1.54 µM
IC50 (INSR): 0.699 ± 0.261 µM
Tumor volume Mean [2, 30]: 176 mm³
Tumor volume, individual animals [2, 30]: 188 and 164 and 230 and 150 and 236 and 136 and 182 and 147
Tumor volume Mean [2, 31]: 295 mm³
Tumor volume, individual animals [2, 31]: 324 and 257 and 368 and 284 and 366 and 229 and 267 and 234
Tumor volume Mean [2, 32]: 449 mm³
Tumor volume, individual animals [2, 32]: 431 and 392 and 594 and 476 and 695 and 327 and 410 and 337 and 384
Tumor volume Mean [2, 33]: 606 mm³
Tumor volume, individual animals [2, 33]: 596 and 541 and 738 and 570 and 1128 and 398 and 498 and 499 and 486
Tumor volume Mean [2, 34]: 694 mm³
Tumor volume, individual animals [2, 34]: 630 and 635 and 849 and 718 and 1127 and 586 and 573 and 580 and 545
Tumor volume Mean [2, 35]: 887 mm³
Tumor volume, individual animals [2, 35]: 729 and 821 and 1141 and 926 and 1167 and 805 and 883 and 751 and 758.9
Tumor volume Mean [2, 36]: 972 mm³
Tumor volume, individual animals [2, 36]: 760 and 976 and 1087 and 1021 and 1125 and 811 and 1040 and 1032 and 895
Tumor volume Mean [2, 37]: 177 mm³
Tumor volume, individual animals [2, 37]: 233 and 239 and 173 and 121 and 155 and 235
Tumor volume Mean [2, 38]: 260 mm³
Tumor volume, individual animals [2, 38]: 306 and 299 and 256 and 223 and 292 and 296
Tumor volume Mean [2, 39]: 371 mm³
Tumor volume, individual animals [2, 39]: 537 and 487 and 339 and 249 and 357 and 438
Tumor volume Mean [2, 40]: 430 mm³
Tumor volume, individual animals [2, 40]: 567 and 541 and 407 and 332 and 403 and 534
Tumor volume Mean [2, 41]: 531 mm³
Tumor volume, individual animals [2, 41]: 666 and 699 and 523 and 388 and 515
Tumor volume Mean [2, 42]: 624 mm³
Tumor volume, individual animals [2, 42]: 718 and 880 and 646 and 506 and 603
Tumor volume Mean [2, 43]: 727 mm³
Tumor volume, individual animals [2, 43]: 811 and 875 and 702 and 717 and 714
Tumor volume Mean ([2]; 10mg/kg PO QD×21, day 0 after administration): 174 mm³
Tumor volume Mean ([2]; 10mg/kg PO QD×21, day 3 after administration): 190 mm³
Tumor volume Mean ([2]; 10mg/kg PO QD×21, day 6 after administration): 204 mm³
Tumor volume Mean ([2]; 10mg/kg PO QD×21, day 9 after administration): 240 mm³
Tumor volume Mean ([2]; 10mg/kg PO QD×21, day 13 after administration): 243 mm³
Tumor volume Mean ([2]; 10mg/kg PO QD×21, day 16 after administration): 218 mm³
Tumor volume Mean ([2]; 10mg/kg PO QD×21, day 20 after administration): 233 mm³
IC50 (DYRK3): 8.01 ± 0.583 µM
